Patent US8664276B2, “Stilbene analogs and methods of treating cancer” (University of Kentucky Research Foundation, priority 2011, dated 2014)
“Also recorded” adds a separate entry of the source.

Experiments:
[1] = tested on: Wnt target genes, Axin2 and c-Myc; experiment: Western blot of Wnt target proteins in LS174 CRC cells; format: cell-based
Protocol: Western blot. Western blots were performed using the following antibodies: β-catenin (Sigma, C2206), c-Myc (Epitomics, 1472-1), Axin2 (Cell Signaling, 2151), β-Actin (Sigma, A1978), TCF4 (Epitomics, 2114-1) and pygopus2 (Santa Cruz, sc-74878), Cyclin D1 (Cell signaling, 2926).
Cyclin B1 levels were decreased, whereas p21^WAF1/CIP1 levels increased, consistent with the fact that p21^WAF1/CIP1 expression is repressed by c-Myc. β-catenin levels were not affected by resveratrol. Next, the mRNA levels of β-catenin target genes were analyzed using RT-PCR. Expression of survivin, Lgr5, CD44, and c-Myc were decreased in resveratrol-treated cells.
A panel of stilbene analogs was designed and synthesized (FIGS. 2, 3, 5A and 6A). […] However, the solubility of 4d was poor and it was not effective below 10 μM concentrations (data not shown). To improve its solubility and activity, compound 4d was modified with 2′-fluoro 4e, 3′-fluoro 4f and 4′-fluoro 4g substituents (FIG. 5D). Both compounds 4e and 4f had good activity at 10 μM, (E)-4-(2-fluorostyryl)-N,N-dimethylaniline.
(§1) Western blot and cell proliferation assay. The activity of fluorinated N,N-dialkylaminostilbenes (FIDAS or FIDAS agents) on Wnt signaling activity in cancer cells were analyzed by Western blot with antibodies against Wnt target genes, such as c-Myc, Axin2. The effects of FlDAS agents on cancer cell growth were analyzed using Cell Viability Analyzer (Beckman Coulter, Vi-Cell XR). These assays have been described previously (see Zhang et al., J. of Med. Chem. 54, 1288-1297 (2011)).

[2] = tested on: liver cancer cells; experiment: Liver cancer cell proliferation; format: cell-based; details: FIG. 15
Protocol: as §1
As previously shown, several metabolites of the halogenated stilbenes of the present disclosure were synthesized (Example 2 and FIG. 3). In this study, the effects of some of these metabolites on cell proliferation were studied.

[3] = tested on: LS174 CRC cells; experiment: CRC cell proliferation assay (Vi-Cell); format: cell-based; details: for colon cancer cell proliferation, effectiveness versus resveratrol and 4r: FIG. 14
Protocol: Luciferase and cell proliferation assay. HEK293T cells were transiently transfected in a 12-well plate with 0.2 μg of the Super8xTOPFlash reporter and 0.05 μg of Renilla luciferase reporter. Culture medium was changed after 12 h. After 6 h, cells were treated with DMSO or Wnt inhibitors for 12 h, and then treated with 25 mM LiCl or Wnt conditioned medium. After 12 h, cells were harvested and luciferase activity measured by Dual-luciferase Reporter Assay System (Promega, Madison Wis.). All conditions were done in triplicate and each experiment was carried out at least two times. For cell proliferation assay, CRC cells were treated with DMSO or inhibitors for 2d and 4d. The cell numbers and viability were analyzed by Vi-Cell Cell Viability Analyzer.
as §1

[4] = tested on: Wnt signaling; experiment: TopFlash luciferase reporter assay in HEK293T cells; format: cell-based
Protocol: Luciferase and cell proliferation assay. HEK293T cells were transiently transfected in a 12-well plate with 0.2 μg of the Super8xTOPFlash reporter and 0.05 μg of Renilla luciferase reporter. Culture medium was changed after 12 h. After 6 h, cells were treated with DMSO or Wnt inhibitors for 12 h, and then treated with 25 mM LiCl or Wnt conditioned medium. After 12 h, cells were harvested and luciferase activity measured by Dual-luciferase Reporter Assay System (Promega, Madison Wis.). All conditions were done in triplicate and each experiment was carried out at least two times. For cell proliferation assay, CRC cells were treated with DMSO or inhibitors for 2d and 4d. The cell numbers and viability were analyzed by Vi-Cell Cell Viability Analyzer. To identify Wnt pathway inhibitors for CRC prevention and treatment, a number of anti-cancer agents from plants were screened using the TopFlash reporter assay. The TopFlash reporter was transfected into HEK293T cells, and the cells were treated with Wnt3A-conditioned medium in order to activate the luciferase reporter. […] To determine if resveratrol regulates β-catenin degradation, the cells were treated with 25 mM LiCl, which inhibits GSK-3 and stabilizes β-catenin. In this assay, LiCl activated the reporter more strongly than Wnt3A conditioned medium. […] Emodin is an anti-cancer agent from plants; it exists in many unpurified resveratrol products. Emodin had no effect on Wnt signaling. See Zhang et al., J. of Med. Chem. 54, 1288-1297 (2011).

| melting point | SMILES | Wnt inhibitory activity in Western blot, qualitative or relative to a comparator ([1]; CRC cells) | further results |
| --- | --- | --- | --- |
| 132 to 133 °C | CN(C)c1ccc(/C=C/c2cccc(F)c2F)cc1 [4m, (E)-4-(2,3-Difluorostyryl)-N,N-dimethylaniline] | more active than compound 4e | repression of Wnt target genes at 10 μM ([1]; CRC cells): repress Wnt target genes |
| 139 to 140 °C | CN(C)c1ccc(/C=C/c2ccc(F)cc2F)cc1 [4n, (E)-4-(2,4-Difluorostyryl)-N,N-dimethylaniline] | – | – |
| 159 to 160 °C | CN(C)c1ccc(/C=C/c2ccc(F)c(F)c2)cc1 [4t, (E)-4-(3,4-Difluorostyryl)-N,N-dimethylaniline] | – | – |
| 146 to 147 °C | CN(C)c1ccc(/C=C/c2cc(F)ccc2F)cc1 [4o, (E)-4-(2,5-Difluorostyryl)-N,N-dimethylaniline] | more active than compound 4e | repression of Wnt target genes at 10 μM ([1]; CRC cells): repress Wnt target genes |
| 100 to 103 °C | C[N+](C)([O-])c1ccc(/C=C/c2c(F)cccc2F)cc1 [4z, (E)-4-(2,6-difluorostyryl)-N,N-dimethylaniline oxide] | – | – |
| 69 to 71 °C | CN(C)c1cccc(/C=C/c2c(F)cccc2F)c1 [4q, (E)-3-(2,6-Difluorostyryl)-N,N-dimethylaniline] | not as active as compound 4r | – |
| 42 to 44 °C | CN(C)c1ccc(/C=C/c2c(F)cccc2Cl)cc1 [4x, (E)-4-(2-chloro-6-fluorostyryl)-N,N-dimethylaniline] | – | – |
| 96 to 97 °C | CN(C)c1ccc(/C=C/c2c(Cl)cccc2Cl)cc1 [4y, (E)-4-(2,6-dichlorostyryl)-N,N-dimethylaniline] | – | – |
| 91 to 92 °C | CN(C)c1ccc(/C=C/c2c(F)ccc(F)c2F)cc1 [4v, (E)-N,N-Dimethyl-4-(2,3,6-trifluorostyryl)aniline] | no significant improvements over compound 4r | repression of Wnt target genes at 10 μM ([1]; CRC cells): active |
| 127 to 128 °C | CN(C)c1ccc(/C=C/c2c(F)cc(F)cc2F)cc1 [4w, (E)-N,N-Dimethyl-4-(2,4,6-trifluorostyryl)aniline] | no significant improvements over compound 4r | repression of Wnt target genes at 10 μM ([1]; CRC cells): active |
| 136 to 137 °C | CN(C)c1ccc(/C=C/c2cc(F)cc(F)c2)cc1 [4u, (E)-4-(3,5-Difluorostyryl)-N,N-dimethylaniline] | – | – |
| 70 to 71 °C | CCN(CC)c1ccc(/C=C/c2c(F)cccc2F)cc1 [4s, (E)-4-(2,6-Difluorostyryl)-N,N-diethylaniline] | slightly less active than compound 4r; also recorded: active Wnt inhibitor | – |

Second part, the compound before the results:

| SMILES | melting point | Wnt inhibitory activity in Western blot, qualitative or relative to a comparator ([1]; CRC cells) | further results |
| --- | --- | --- | --- |
| CNc1ccc(C=Cc2c(Cl)cccc2Cl)cc1 [4ee, (E and Z)-4-(2,6-dichlorostyryl)-N-methylaniline] | – | – | liver cancer cell proliferation, effectiveness versus resveratrol and 4r [2]: significantly more effective than resveratrol, as well as compound 4r; colon cancer cell proliferation, effectiveness versus resveratrol and 4r [3]: significantly more effective than resveratrol, as well as compound 4r |
| CN(C)c1ccc(/C=C/c2ccccc2F)c2ccccc12 [4k, (E)-4-(2-Fluorostyryl)-N,N-dimethylnaphthalen-1-amine] | 56 to 58 °C | – | – |
| C[N+](C)([O-])c1ccc(/C=C/c2c(Cl)cccc2Cl)cc1 [4bb, (E)-4-(2,6-dichlorostyryl)-N,N-dimethylaniline oxide] | 80 to 82 °C | – | – |
| CN(C)c1ccc(/C=C/c2cccc(F)c2)cc1 [4f, (E)-4-(3-Fluorostyryl)-N,N-dimethylaniline] | 147 to 148 °C | – | repression of Wnt target genes at 10 μM ([1]; CRC cells): good activity |
| CN(C)c1ccccc1/C=C/c1c(F)cccc1F [4p, (E)-2-(2,6-Difluorostyryl)-N,N-dimethylaniline] | – | not as active as compound 4r | – |
| Nc1ccc(C=Cc2ccccc2)cc1 [4c, 4-aminostilbene, reference compound] | – | – | repression of Wnt target genes at 30 μM ([1]; 30 μM, CRC cells): represses Wnt target genes |
| Oc1ccc(/C=C\c2cc(O)cc(O)c2)cc1 [cis- or (Z)-resveratrol, reference compound] | – | – | protein levels of c-Myc and Cyclin D1 ([1]; LS174 CRC cells): reduced by resveratrol but not its isomer |
| CN(C)c1ccc(/C=C/c2ccccc2F)cc1 [4e, (E)-4-(2-Fluorostyryl)-N,N-dimethylaniline] | 124 to 126 °C | best among all of the monofluoro-substituted compounds | repression of Wnt target genes at 10 μM ([1]; CRC cells): good activity; CRC cell growth inhibition compared with other compounds ([3]; cell proliferation assay): significantly better inhibitor |
| CN1CCN(c2ccc(/C=C/c3ccccc3F)cc2)CC1 [4j, (E)-1-(4-(2-Fluorostyryl)phenyl)-4-methylpiperazine] | 142 to 144 °C | – | – |
| Fc1ccccc1/C=C/c1ccc(N(c2ccccc2)c2ccccc2)cc1 [4i, (E)-4-(2-Fluorostyryl)-N,N-diphenylaniline] | 114 to 115 °C | – | repression of Wnt target genes at 10 μM ([1]; CRC cells): inactive |
| CN(C)c1ccc(/C=C/c2ccc(F)cc2)cc1 [4g, (E)-4-(4-Fluorostyryl)-N,N-dimethylaniline] | 197 to 198 °C | – | – |
| CN(C)c1ccc(CCc2c(F)cccc2F)cc1 [5r, (E)-4-(2,6-Difluorophenethyl)-N,N-dimethylaniline] | – | the activity was lost | – |
| CCN(CC)c1ccc(/C=C/c2ccccc2F)cc1 [4h, (E)-4-(2-Fluorostyryl)-N,N-diethylaniline] | 78 to 79 °C | not as potent as compound 4e | repression of Wnt target genes at 10 μM ([1]; CRC cells): active |
| Cc1cc(O)c2c(c1)C(=O)c1cc(O)cc(O)c1C2=O [Emodin] | – | – | effect on Wnt signaling [4]: no effect |
| COc1ccc(/C=C/c2ccccc2)cc1 [4b, (E)-4-Methoxystilbene] | 136 to 137 °C | – | – |
| C[N+](C)([O-])c1ccc(/C=C/c2c(F)cccc2Cl)cc1 [4aa, (E)-4-(2-chloro-6-fluorostyryl)-N,N-dimethylaniline oxide] | 82 to 84 °C | – | liver cancer cell proliferation, effectiveness versus resveratrol and 4r [2]: significantly more effective than resveratrol, as well as compound 4r; colon cancer cell proliferation, effectiveness versus resveratrol and 4r [3]: significantly more effective than resveratrol, as well as compound 4r |
